Laboratory results taken from ChEMBL document CHEMBL2311414, “Synthesis, antimalarial activity and cytotoxic potential of new monocarbonyl analogues of curcumin” (Bioorg Med Chem Lett, 2013).

Assays:
PC-3 = assay: Cytotoxicity against human PC3 cells after 48 hrs by MTT assay; type: functional, cell-based; conditions: PC-3, 48 h
KB = assay: Cytotoxicity against human KB cells after 48 hrs by MTT assay; type: functional, cell-based
[1] = Selectivity index, ratio of IC50 for african green monkey Vero cells to IC50 for chloroquine-resistant Plasmodium falciparum W2; type: toxicity, cell-based; conditions: read-out: Ratio IC50
HeLa = assay: Cytotoxicity against human HeLa cells after 48 hrs by MTT assay; type: functional, cell-based
Plasmodium falciparum [2] = assay: Antimalarial activity against chloroquine-resistant Plasmodium falciparum W2 infected in RBC assessed as plasmodial LDH activity after 72 hrs; type: functional, organism-based
DU-145 = assay: Cytotoxicity against human DU145 cells after 48 hrs by MTT assay; type: functional, cell-based; conditions: DU-145, 48 h
Vero = assay: Cytotoxicity against african green monkey Vero cells up to 9 uM after 48 hrs by neutral red assay; type: cell-based; conditions: chlorocebus sabaeus
Plasmodium falciparum [3] = assay: Antimalarial activity against chloroquine-sensitive Plasmodium falciparum D6 infected in RBC assessed as plasmodial LDH activity after 72 hrs; type: functional, organism-based
MOLT-4 = assay: Cytotoxicity against human MOLT4 cells after 48 hrs by MTT assay; type: functional, cell-based; conditions: MOLT-4, 48 h
[4] = Selectivity index, ratio of IC50 for african green monkey Vero cells to IC50 for chloroquine-sensitive Plasmodium falciparum D6; type: toxicity, cell-based; conditions: read-out: Ratio IC50
[5] = Plasmodium falciparum, W2, 72 h, read-out: IC50
[6] = Plasmodium falciparum, D6, 72 h, read-out: IC50

| Compound | IC50 (PC-3) [nM] | IC50 (KB) [nM] | selectivity ratio [1] | IC50 (HeLa) [nM] | IC50 (Plasmodium falciparum [2]; [5]) [nM] | IC50 (DU-145) [nM] | Activity (Vero) | IC50 (Plasmodium falciparum [3]; [6]) [nM] | IC50 (MOLT-4) [nM] | selectivity ratio [4] | IC50 (Plasmodium falciparum [2]) | IC50 (Plasmodium falciparum [3]) |
| --- | --- | --- | --- | --- | --- | --- | --- | --- | --- | --- | --- | --- |
| COc1cc(/C=C2\CC/C(=C\c3ccc(OCCCN(C)C)c(OC)c3)C2=O)ccc1OCCCN(C)C | 1500 | 200 | > 6 | 640 | 1530 | 430 | Non-toxic | 1140 | 430 | > 7.9 | – | – |
| Cc1nccn1CCCCOc1ccc(/C=C2\CC/C(=C\c3ccc(OCCCCn4ccnc4C)cc3)C2=O)cc1 | – | – | > 6 | – | 1410 | – | Non-toxic | 1090 | – | > 7.7 | – | – |
| O=C1/C(=C/c2ccc(OCCCCn3ccnc3)cc2)CC/C1=C\c1ccc(OCCCCn2ccnc2)cc1 | – | – | > 2.5 | – | 3540 | – | Non-toxic | 2040 | – | > 4.3 | – | – |
| CN(C)CCCCOc1ccc(/C=C2\CC/C(=C\c3ccc(OCCCCN(C)C)cc3)C2=O)cc1 | 2900 | 1650 | – | 6800 | – | 4400 | – | – | 330 | – | – | – |
| O=C1/C(=C/c2ccc(OCCCCN3CCOCC3)cc2)CCC/C1=C\c1ccc(OCCCCN2CCOCC2)cc1 | – | – | – | – | – | – | Non-toxic | – | – | – | Not Active | Not Active |
| O=C1/C(=C/c2ccc(OCCCCN3CCOCC3)cc2)CC/C1=C\c1ccc(OCCCCN2CCOCC2)cc1 | – | – | – | – | – | – | Non-toxic | – | – | – | Not Active | Not Active |
| O=C1/C(=C/c2ccc(OCCCCN3CCCCC3)cc2)CCC/C1=C\c1ccc(OCCCCN2CCCCC2)cc1 | 1530 | 2540 | – | 3630 | – | 2110 | – | – | 730 | – | – | – |
| Cc1nccn1CCOc1ccc(/C=C2\CC/C(=C\c3ccc(OCCn4ccnc4C)cc3)C2=O)cc1 | – | – | > 21.6 | – | 430 | – | Non-toxic | 350 | – | > 26.4 | – | – |
| O=C1/C(=C/c2ccc(OCCn3ccnc3)cc2)CC/C1=C\c1ccc(OCCn2ccnc2)cc1 | – | – | > 26.4 | – | 370 | – | Non-toxic | 450 | – | > 21.6 | – | – |
| COc1cc(/C=C2\CC/C(=C\c3ccc(OCCCCn4ccnc4C)c(OC)c3)C2=O)ccc1OCCCCn1ccnc1C | – | – | > 1.7 | – | 4480 | – | Non-toxic | 4000 | – | > 1.9 | – | – |
| COc1cc(/C=C2\CC/C(=C\c3ccc(OCCCCn4ccnc4)c(OC)c3)C2=O)ccc1OCCCCn1ccnc1 | – | – | > 14 | – | 560 | – | Non-toxic | 530 | – | > 14.9 | – | – |
| COc1cc(/C=C2\CC/C(=C\c3ccc(OCCCCN4CCCCCC4)c(OC)c3)C2=O)ccc1OCCCCN1CCCCCC1 | 300 | 2250 | > 4 | 1390 | 1820 | 1010 | Non-toxic | 1360 | 410 | > 5.3 | – | – |
| COc1cc(/C=C2\CC/C(=C\c3ccc(OCCCCN4CCCCC4)c(OC)c3)C2=O)ccc1OCCCCN1CCCCC1 | 500 | 550 | > 2.6 | 490 | 2850 | 460 | Non-toxic | 1740 | 320 | > 4.3 | – | – |
| COc1cc(/C=C2\CC/C(=C\c3ccc(OCCCCN4CCOCC4)c(OC)c3)C2=O)ccc1OCCCCN1CCOCC1 | 280 | 620 | > 11.9 | 720 | 630 | 670 | Non-toxic | 690 | 360 | > 10.8 | – | – |
| COc1cc(/C=C2\CC/C(=C\c3ccc(OCCCn4ccnc4C)c(OC)c3)C2=O)ccc1OCCCn1ccnc1C | 200 | 1990 | > 2.6 | 3150 | 3010 | 3900 | Non-toxic | 2010 | 660 | > 4 | – | – |
| COc1cc(/C=C2\CC/C(=C\c3ccc(OCCCn4ccnc4)c(OC)c3)C2=O)ccc1OCCCn1ccnc1 | – | – | – | – | – | – | Non-toxic | – | – | – | Not Active | Not Active |
| COc1cc(/C=C2\CCC/C(=C\c3ccc(OCCCN4CCCCC4)c(OC)c3)C2=O)ccc1OCCCN1CCCCC1 | 6910 | 1650 | – | 1950 | – | 2050 | – | – | 550 | – | – | – |
| COc1cc(/C=C2\CC/C(=C\c3ccc(OCCn4ccnc4C)c(OC)c3)C2=O)ccc1OCCn1ccnc1C | > 5000 | 3400 | > 6 | 900 | 1380 | > 5000 | Non-toxic | 1280 | 100 | > 6.5 | – | – |
| COc1cc(/C=C2\CC/C(=C\c3ccc(OCCn4ccnc4)c(OC)c3)C2=O)ccc1OCCn1ccnc1 | – | – | > 4.9 | – | 1810 | – | Non-toxic | 2210 | – | > 4 | – | – |
| COc1cc(/C=C2\CC/C(=C\c3ccc(OCCN(C)C)c(OC)c3)C2=O)ccc1OCCN(C)C | > 5000 | > 5000 | > 15.4 | 500 | 620 | > 5000 | Non-toxic | 440 | 30 | > 21.6 | – | – |
| COc1cc(/C=C2\CC/C(=C\c3ccc(OCCN4CCCCC4)c(OC)c3)C2=O)ccc1OCCN1CCCCC1 | > 5000 | 4400 | > 15.4 | 400 | 530 | > 5000 | Non-toxic | 500 | 20 | > 16.4 | – | – |
| COc1cc(/C=C2\CC/C(=C\c3ccc(OCCN4CCOCC4)c(OC)c3)C2=O)ccc1OCCN1CCOCC1 | – | – | > 3.4 | – | 2410 | – | Non-toxic | 3110 | – | > 2.6 | – | – |
| COc1cc(/C=C2\CC/C(=C\c3ccc(OCCBr)c(OC)c3)C2=O)ccc1OCCBr | – | – | – | – | – | – | Non-toxic | – | – | – | Not Active | Not Active |
| C[C@@H]1CC[C@H]2[C@@H](C)C(=O)O[C@@H]3O[C@@]4(C)CC[C@@H]1[C@]32OO4 [ARTEMISININ] | – | – | > 800 | – | 11 | – | Non-toxic | 19 | – | > 470 | – | – |
| CCN(CC)CCCC(C)Nc1ccnc2cc(Cl)ccc12 (configuration not stated) [CHLOROQUINE] | – | – | – | – | – | – | Non-toxic | – | – | – | – | – |
| COc1cccc2c1C(=O)c1c(O)c3c(c(O)c1C2=O)C[C@@](O)(C(=O)CO)C[C@@H]3O[C@H]1C[C@H](N)[C@H](O)[C@H](C)O1 [DOXORUBICIN] | 200 | 330 | – | 2200 | – | 200 | – | – | – | – | – | – |
